The test system of the assay is CFTR-Y122X (GFP-CFTR-Y122X-Renilla construct) in Hek293 cell lines. The assay can be described thus: CFTR-Y122X assay (dual reporter readthrough, Renilla luminescence). It is filed as cell-based. To be noted: Homo sapiens; for AC50: nonsense mutation suppression in the CFTR-Y122X assay; for AC50 / Emax: compounds incubated 24 h, tested up to 100 μM; for Emax: nonsense mutation suppression, 100% activity = 14 mM paromomycin, read-out: Amax. An excerpt:
In particular, compounds of formula (I), (I′), (Ia), (Ia′) or (Ib) I act as nonsense mutation suppressors on frequent PTCs, e.g. on Y122X in the mRNA of the cystic fibrosis conductance regulator protein (CFTR). This can be determined in vitro, for example, using cell lines expressing GFP-CFTR-Y122X-Renilla constructs as described herein.
Activity of compounds of the present invention was examined in recombinant, dual reporter isogenic Hek293 cell lines (“CFTR-Y122X assay”). The engineered reporter constructs contained the 18 bp sequence strech corresponding to a common Y122X PTC mutation in CFTR class I mutant patients (see Sermet-Gaudelus, BMC Medicine, 2007, 5(5)). Instead of a tyrosine (Y) in position 122 of the CFTR protein a TGA stop codon interrupts the open reading frame (Y122X) of the corresponding mRNA. This TGA stop codon triplet (followed by the pyrimidine base cytosine) is permissive to aminoglycoside mediated translational readthrough which served as positive control for high throughput screening. A corresponding TAA stop codon variant and a wildtype non mutated construct was used for confirmation and counter screening. The CFTR sequence was sandwiched between an eGFP reporter, and a triple myc tag sequence fused to a full length Renilla reporter. All sequences, including an intron containing one positioned pre-eGFP (b-globin intron) were cloned in frame. The corresponding expression constructs were stably expressed in the isogenic HEK-R4 cell host (Invitrogen Incorp.) and selected by blasticidin resistance. The isogenic integration of the construct minimizes gene dose effects and improves assay reproducibility. Stably integrated single cell derived clones were selected and characterized for aminoglycoside mediated readthrough. […] Readthrough of Y122X accumulates an intracellular localized fusion protein approximately 65.5 kDa in size as controlled by western blot analysis and immunofluorescence using an anti-renilla antibody. The eGFP reporter pre-PTC mutation serves as visual control for genetic stability of the screening clones and minimizes protein degradation of small fusion protein amounts. In the assay, compound concentration was 10 μM. In miniaturized 1536 well format 2000 cells were dispensed in 4 μl/well and incubated for 24 h at 37° C., 5% CO2. 40 nl compounds were placed on the cells with control wells containing 1 ul Paramomycin and 14.4 mM final concentration. Compounds were incubated for 24 h. Renilla Glo substrate (2.5 ul) was added and plates were centrifuged and processed for luminescence measurement using various readers. Activity calculation was done using the equation: A1(%)=100*(S−NC)/(AC−NC) where AC, NC and S correspond to active controls (injection of Stimulation buffer=100% stimulation), neutral controls (buffer injection which Iloprost EC10) and screening samples (S). NC corresponds to 0% activity whereas AC is 100% activity (14 mM paromomycin). False positive artefacts were removed in confirmation and validation screening using the same assay format followed by counterscreening using the respective wildtype construct (w/o PTC mutation) cell model. Compounds were tested up to 100 μM compound concentration.

In general, AC50 refers to the concentration at which the activity in the assay is half-maximal. Take `Cn1c2ccccc2c(=O)c2c(=O)n(C3CCCC3)c(C3CCC3)cc21` [Example 2.2, 3-cyclobutyl-2-cyclopentyl-5-methylbenzo[b][1,6]naphthyridine-1,10(2H,5H)-dione]: half-maximal activity (AC50) was put at 2100 nM and the Emax worked out at 262%.

For `CC(C)c1cc2[nH]c3ccccc3c(=O)c2c(=O)n1C1CCCC1` [Example 2.3, 2-cyclopentyl-3-isopropylbenzo[b][1,6]naphthyridine-1,10(2H,5H)-dione], the activity was half-maximal at 400 nM (AC50) and the Emax turned out to be 235%. For the compound `CC(C)c1cc2c(c(=O)c3ccccc3n2C)c(=O)n1C1CCCC1` [Example 2.4, 2-cyclopentyl-3-isopropyl-5-methylbenzo[b][1,6]naphthyridine-1,10(2H,5H)-dione], the activity was half-maximal at 1800 nM (AC50) and the Emax came out at 274%. For the compound `O=c1c2ccccc2[nH]c2cc(C3CCC3)n(-c3ccccn3)c(=O)c12` [Example 2.5, 3-cyclobutyl-2-(pyridin-2-yl)benzo[b][1,6]naphthyridine-1,10(2H,5H)-dione], the activity was half-maximal at 2700 nM (AC50) and the Emax stood at 217%. As for `Cn1c2ccccc2c(=O)c2c(=O)n(-c3ccccn3)c(C3CCC3)cc21` [Example 2.6, 3-cyclobutyl-5-methyl-2-(pyridin-2-yl)benzo[b][1,6]naphthyridine-1,10(2H,5H)-dione], the activity was half-maximal at 3300 nM (AC50) and the Emax was 232%. On to `O=c1c2ccccc2[nH]c2cc(C3CCC3)n(N3CCCC3)c(=O)c12` [Example 2.7, 3-cyclobutyl-2-(pyrrolidin-1-yl)benzo[b][1,6]naphthyridine-1,10(2H,5H)-dione], for which the concentration at half-maximal activity (AC50) is 700 nM and the Emax was found to be 197%. The matching figures for `Cn1c2ccccc2c(=O)c2c(=O)n(N3CCCC3)c(C3CCC3)cc21` [Example 2.8, 3-cyclobutyl-5-methyl-2-(pyrrolidin-1-yl)benzo[b][1,6]naphthyridine-1,10(2H,5H)-dione]: 6100 nM and 188%. The matching figures for `CC(C)c1cc2[nH]c3ccccc3c(=O)c2c(=O)n1-c1ccccn1` [Example 2.9, 3-isopropyl-2-(pyridin-2-yl)benzo[b][1,6]naphthyridine-1,10(2H,5H)-dione]: 4200 nM and 198%. Regarding `CC(C)c1cc2c(c(=O)c3ccccc3n2C)c(=O)n1-c1ccccn1` [Example 2.10, 3-isopropyl-5-methyl-2-(pyridin-2-yl)benzo[b][1,6]naphthyridine-1,10(2H,5H)-dione], the AC50 stood at 10000 nM and the Emax amounted to 177%. In turn, `CC(C)c1cc2[nH]c3ccccc3c(=O)c2c(=O)n1N1CCCC1` [Example 2.11, 3-isopropyl-2-(pyrrolidin-1-yl)benzo[b][1,6]naphthyridine-1,10(2H,5H)-dione] displayed a half-maximal activity concentration (AC50) of 900 nM. Consider `CC(C)c1cc2c(c(=O)c3ccccc3n2C)c(=O)n1N1CCCC1` [Example 2.12, 3-isopropyl-5-methyl-2-(pyrrolidin-1-yl)benzo[b][1,6]naphthyridine-1,10(2H,5H)-dione], for which the concentration at half-maximal activity (AC50) is 1700 nM and the Emax is 178%. The matching figures for `CC(C)c1cc2[nH]c3ccccc3c(=O)c2c(=O)n1N1CCCCC1` [Example 2.13, 3-isopropyl-2-(piperidin-1-yl)benzo[b][1,6]naphthyridine-1,10(2H,5H)-dione]: 1800 nM and 265%.

Take `CC(C)c1cc2c(c(=O)c3ccccc3n2C)c(=O)n1N1CCCCC1` [Example 2.14, 3-isopropyl-5-methyl-2-(piperidin-1-yl)benzo[b][1,6]naphthyridine-1,10(2H,5H)-dione]: the activity was half-maximal at 1700 nM (AC50) and the Emax came to 271%. With `CC(C)c1cc2[nH]c3sccc3c(=O)c2c(=O)n1C1CCCC1` [Example 2.15, 6-cyclopentyl-7-isopropylthieno[2,3-b][1,6]naphthyridine-4,5(6H,9H)-dione], the Emax came out at 124%.

For `CC(C)c1cc2c(c(=O)c3ccsc3n2C)c(=O)n1C1CCCC1` [Example 2.16, 6-cyclopentyl-7-isopropyl-9-methylthieno[2,3-b][1,6]naphthyridine-4,5(6H,9H)-dione], half-maximal activity (AC50) was put at 1200 nM and the Emax was 279%. The matching figures for `CC(C)c1cc2[nH]c3ccccc3c(=O)c2c(=O)n1-n1cccc1` [Example 2.17, 3-isopropyl-2-(1H-pyrrol-1-yl)benzo[b][1,6]naphthyridine-1,10(2H,5H)-dione]: 9000 nM and 237%.

As to `CC(C)c1cc2c(c(=O)c3ccccc3n2C)c(=O)n1-n1cccc1` [Example 2.18, 3-isopropyl-5-methyl-2-(1H-pyrrol-1-yl)benzo[b][1,6]naphthyridine-1,10(2H,5H)-dione], the concentration at half-maximal activity (AC50) was determined as 17600 nM and the Emax stood at 75%. The matching figures for `CC(C)c1c(Cl)c2[nH]c3ccccc3c(=O)c2c(=O)n1-c1ccccc1` [Example 3.1, 4-chloro-3-isopropyl-2-phenylbenzo[b][1,6]naphthyridine-1,10(2H,5H)-dione]: 3200 nM and 211%. The matching figures for `CC(C)c1c(Cl)c2c(c(=O)c3ccccc3n2C)c(=O)n1-c1ccccc1` [Example 3.2, 4-chloro-3-isopropyl-5-methyl-2-phenylbenzo[b][1,6]naphthyridine-1,10(2H,5H)-dione]: 17200 nM and 220%. Take `CC(C)c1c(Br)c2c(c(=O)c3ccccc3n2C)c(=O)n1-c1ccccc1` [Example 3.3, 4-bromo-3-isopropyl-5-methyl-2-phenylbenzo[b][1,6]naphthyridine-1,10(2H,5H)-dione]: the AC50 worked out at 18800 nM and the Emax is 122%. Broadly, the EC50 is the midpoint of the concentration-response curve. Regarding `NC[C@@H]1O[C@H](O[C@H]2[C@@H](O)[C@H](O[C@@H]3[C@@H](O)[C@H](N)C[C@H](N)[C@H]3O[C@H]3O[C@H](CO)[C@@H](O)[C@H](O)[C@H]3N)O[C@@H]2CO)[C@H](N)[C@@H](O)[C@@H]1O` [paromomycin, reference compound], the EC50 (clone pursued for HTS assay development, read-out: EC50 (response of selected clone, aminoglycoside mediated readthrough)) was 1.5 mM.
